Assay results reported in patent US8853215B2, “Derivatives of N-acyl-N′-phenylpiperazine useful (inter alia) for the prophylaxis or treatment of diabetes” (Takeda Pharmaceutical Company Limited, priority 2009, dated 2014).

Assays:
human RBP4 = human RBP4 (Homo sapiens (Human), UniProt P02753); assay: Binding assay by Retinol-RBP4-TTR ELISA; details: for IC50: retinol 50 nM, His-tagged human RBP4, biotinylated human TTR, read-out: human RBP4 binding inhibitory activity (IC50 nM); for inhibition at 10 µM: at 10 μM compound, read-out: human RBP4 binding inhibitory activity(% at 10 μM)
Experimental: The action of the compound of the present invention to inhibit binding of RBP4 and retinol and TTR was evaluated using the Retinol-RBP4-TTR ELISA system shown below.
1F: Binding Assay by Retinol-RBP4-TTR ELISA
This ELISA system detects a complex of RBP4 and TTR based on a retinol-dependent binding of RBP4 to TTR.
His-tagged human RBP4 used was prepared in the above-mentioned 1C.
Biotinylate human TTR used was prepared in the above-mentioned 1E.
Streptavidin (20 μl) (10 μg/ml Streptavidin type II (Wako Pure Chemical Industries, Ltd.), 10 mM Tris-HCl (pH 7.5), 10 mM NaCl) was added to a 384 well black plate (Nunc MaxiSorp, Thermo Fisher Scientific Inc.), and the plate was subjected to centrifugation (1000 rpm, 1 min) and coated overnight at 4° C. The plate was washed twice with PBST (PBS, 0.05% Tween 20, 100 μl/well) and blocked with 25% Block Ace (Snow Brand Milk Products Co., Ltd., PBS, 100 μl/well). The plate was subjected to centrifugation (1000 rpm, 1 min) and incubated at room temperature for 4 hr or overnight at 4° C. The plate was washed twice with PBST (PBS, 0.05% Tween 20, 100 μl/well), and biotinylate human TTR (stock solution concentration 1.0 mg/ml) diluted 750-fold with PBST was added at 20 μl/well. The plate was subjected to centrifugation (1000 rpm, 1 min) and stood still at room temperature for 1.5 hr or overnight at 4° C. The plate was washed 3 times with PBST (100 μl/well), and His-tagged human RBP4 (stock solution concentration 0.96 mg/ml) diluted 4000-fold with a reaction buffer (50 mM Tris-HCl, 150 mM NaCl, 0.005% Tween 20, 1 mM DTT, 0.1% BSA) was added at 10 μl/well. The dilution series (8 doses from 10 mM, 200-fold concentration) of the compound was prepared with DMSO, and 1 μl of each was added to a reaction buffer (200 μl) containing retinol (50 nM) (Sigma-Aldrich Co.). A reaction buffer (200 μl) containing retinol and added with DMSO was used as a positive control, and reaction buffer (200 μl) free of retinol and added with DMSO was used as a negative control. Mixed solutions of retinol and the compound were added to the plate at 15 μl/well. The plate was stirred in a platemixer subjected to centrifugation (1000 rpm, 1 min) and reacted at room temperature for 2 hr. A 35% Block Ace solution diluted with the reaction buffer was added at 10 μl/well, centrifuged (1000 rpm, 1 min) and reacted at room temperature for 30 min. The plate was washed 3 times with PBST (100 μl/well) and SuperSignal ELISA Femto Maximum Sensitivity Substrate reagent (PIERCE, Thermo Fisher Scientific Inc.) was added at 30 μl/well, and the luminescence was measured by a platereader (Wallac).
The binding inhibitory activity of the compound was determined by 100×(positive control value-test compound value)/(positive control value-negative control value). The binding activity (IC50) was calculated from the binding inhibitory rate at each compound concentration using a graph drawing software, GraphPad Prism (GraphPad Software Inc.).

RBP4 = RBP4 (Mus musculus (Mouse), UniProt Q00724); assay: Single administration test in mice, plasma RBP4 by ELISA; assay type: in vivo; details: male C57BL/6J or ICR mice, 50 mg/kg oral single dose, mean±SD; for RBP4 (% of initial/Control) 0 hr: 0 hr (just before the administration); for RBP4 (% of initial/Control) 4 hr: 4 hr after administration; for RBP4 (% of initial/Control) 7 hr: 7 hr after administration; for RBP4 (% of initial/Control) 24 hr: 24 hr after administration
Experimental: The action of the compounds of the present invention to reduce plasma RBP4 level was evaluated using the animal model shown below.
Male C57BL/6J and ICR mice were purchased from Charles River (Japan) and maintained on a normal diet (CE2, CLAE Japan, Inc.) and tap water. Animals were housed in a temperature-controlled room adjusted to a 12-hour light/12-hour dark cycle beginning at 7:00 and 19:00, respectively. All procedures were conducted according to the experimental animal care use committee of Takeda Pharmaceutical Company.
Male 6-12-week-old C57BL/6J or ICR mice were housed individually and fed CE2 for 4-6 days. After acclimatization, mice were divided into groups based on their body weight. Compounds were suspended in 0.5% (w/v) methylcellulose in water and given orally to mice at a dose of 50 mg/10 mL/kg of body weight (three to five mice per group). Blood samples were obtained from orbital vein with sodium heparin as an anticoagulant at time 0 hr (just before the administration), 4 hr, 7 hr, and 24 hr after the administration, followed by plasma separation by centrifugation. Plasma RBP4 levels were measured by enzyme-linked immunosorbent assay described in the following section.
Plasma samples were analyzed in duplicate for RBP4 by an enzyme-linked immunosorbent assay. Mouse recombinant RBP4 (Takeda Pharmaceutical Company) was used as standards, and the assay range was 0.313-20 ng/ml. Samples were diluted 10,000-fold with phosphate-buffered saline (PBS) (Sigma) containing 10% (w/v) BlockAce (Dainippon Sumitomo Pharma Co., Ltd). Rabbit anti-RBP4 polyclonal antibody (100 μL/well of 50 μg/mL, Hokudo Co, Ltd) was incubated in a 96-well plate (Nalge Nunc International K.K.) for overnight at 4° C. Subsequently, the plates were washed with PBS-T (Wako Pure Chemical Industries, Ltd.) and blocked with PBS containing 25% BlockAce for 1 hr at room temperature. After another washing with PBS-T, samples and standards were applied to the well, and the plates were incubated for 2 hr at room temperature. After a washing the wells, peroxidase-labeled (Dojindo Laboratories) anti-RBP4 (100 μL/well) was added to the wells, and then the plates were incubated for 1 hr at room temperature. After a final washing with PBS-T, substrate solution 3,3,5,5-tetramethylbenzidine (Sigma) was added to the wells, and the plates were placed in the dark for 5-20 min at room temperature. The reaction was stopped with 0.5 M sulphuric acid and the optical density was measured with a spectrophotometer at 450 nm. The changes in plasma RBP4 levels were expressed as % of initial/Control. All data are presented as mean±SD.

SMILES | IC50 (human RBP4) [nM] | inhibition at 10 µM (human RBP4) [%] | RBP4 (% of initial/Control) 0 hr (RBP4) | RBP4 (% of initial/Control) 4 hr (RBP4) | RBP4 (% of initial/Control) 7 hr (RBP4) | RBP4 (% of initial/Control) 24 hr (RBP4)
CC(C)(C)c1ccccc1N1CCN(C(=O)C23CC4CC(CC(C(=O)O)(C4)C2)C3)CC1 [Example 1, 3-{[4-(2-tert-Butylphenyl)piperazin-1-yl]carbonyl}adamantane-1-carboxylic acid] | 95 | – | – | – | – | –
CC(C)(C)c1ccccc1N1CCN(C(=O)c2c[nH]cn2)CC1 [Example 3, 1-(2-tert-Butylphenyl)-4-(1H-imidazol-4-ylcarbonyl)piperazine] | 3.8 | – | – | – | – | –
CC(C)(C)c1ccccc1N1CCN(C(=O)c2ccc(-c3noc(=O)[nH]3)cc2)CC1 [Example 19, 3-(4-{[4-(2-tert-Butylphenyl)piperazin-1-yl]carbonyl}phenyl)-1,2,4-oxadiazol-5(4H)-one] | 49 | – | – | – | – | –
CC(C)(C)c1ccccc1N1CCN(C(=O)c2ccc(OCC(=O)O)cc2)CC1 [Example 24, (4-{[4-(2-tert-Butylphenyl)piperazin-1-yl]carbonyl}phenoxy)acetic acid] | – | 100 | 100.0 ± 36.4 % of initial/Control | 30.9 ± 2.7 % of initial/Control | 32.2 ± 2.2 % of initial/Control | 73.1 ± 25.6 % of initial/Control
CC(C)(C)c1ccccc1N1CCN(C(=O)c2ccc(SCC(=O)O)nc2)CC1 [Example 25, [(5-{[4-(2-tert-Butylphenyl)piperazin-1-yl]carbonyl}pyridin-2-yl)sulfanyl]acetic acid] | – | 100 | 100.0 ± 7.3 % of initial/Control | 45.0 ± 1.9 % of initial/Control | 57.6 ± 5.6 % of initial/Control | 75.8 ± 6.0 % of initial/Control
CC(C)(C)c1ccccc1N1CCN(C(=O)c2ccc(C(=O)O)cc2)CC1 [Example 34, 4-{[4-(2-tert-Butylphenyl)piperazin-1-yl]carbonyl}benzoic acid] | 480 | – | – | – | – | –
CC(C)(C)c1ccccc1N1CCN(C(=O)C(=O)NS(=O)(=O)NCC2CC2)CC1 [Example 39, 2-[4-(2-tert-Butylphenyl)piperazin-1-yl]-N-[(cyclopropylmethyl)sulfamoyl]-2-oxoacetamide] | 430 | 97 | 100.0 ± 5.8 % of initial/Control | 37.1 ± 1.9 % of initial/Control | 45.1 ± 6.2 % of initial/Control | 86.6 ± 12.4 % of initial/Control
CC(C)(C)c1ccccc1N1CCN(C(=O)c2ccc(OCC3CCNCC3)cc2)CC1 [Example 41, 1-(2-tert-Butylphenyl)-4-{[4-(piperidin-4-ylmethoxy)phenyl]carbonyl}piperazine] | 250 | – | – | – | – | –
CC(C)(C)c1ccccc1N1CCN(C(=O)CCC(=O)O)CC1 [Example 53, 4-(4-(2-tert-Butylphenyl)piperazin-1-yl)-4-oxobutanoic acid] | – | 100 | 100.0 ± 29.7 % of initial/Control | 39.9 ± 3.4 % of initial/Control | 30.2 ± 1.3 % of initial/Control | 93.6 ± 15.1 % of initial/Control
CC(C)(C)c1ccccc1N1CCN(C(=O)Nc2ccccc2)CC1 [Example 56, 4-(2-tert-Butylphenyl)-N-phenylpiperazine-1-carboxamide] | 58 | – | – | – | – | –
CC(C)(C)c1cc(Br)ccc1N1CCN(C(=O)C(=O)O)CC1 [Example 67, [4-(4-Bromo-2-tert-butylphenyl)piperazin-1-yl](oxo)acetic acid] | – | 100 | 100.0 ± 26.6 % of initial/Control | 44.8 ± 2.9 % of initial/Control | 40.3 ± 1.6 % of initial/Control | 94.9 ± 22.6 % of initial/Control
CC(C)(C)c1cc(Br)ccc1N1CCN(C(=O)CC(=O)O)CC1 [Example 69, 3-[4-(4-Bromo-2-tert-butylphenyl)piperazin-1-yl]-3-oxopropanoic acid] | 30 | 99 | 100.0 ± 13.8 % of initial/Control | 47.7 ± 2.7 % of initial/Control | 44.4 ± 0.7 % of initial/Control | 50.0 ± 2.4 % of initial/Control
CC(C)(C)c1ccccc1N1CCN(C(=O)C2(C(=O)O)CC2)CC1 [Example 71, 1-{[4-(2-tert-Butylphenyl)piperazin-1-yl]carbonyl}cyclopropanecarboxylic acid] | 150 | 100 | 100.0 ± 17.1 % of initial/Control | 51.2 ± 1.0 % of initial/Control | 56.7 ± 2.4 % of initial/Control | 120.9 ± 9.0 % of initial/Control
Cc1ccc(N2CCN(C(=O)C(=O)O)CC2)c(C(C)(C)C)c1 [Example 82, [4-(2-tert-Butyl-4-methylphenyl)piperazin-1-yl](oxo)acetic acid] | – | 99 | 100.0 ± 12.5 % of initial/Control | 54.6 ± 4.1 % of initial/Control | 74.2 ± 15.5 % of initial/Control | 101.5 ± 9.7 % of initial/Control
CC(C)(C)c1ccccc1N1CCN(C(=O)CC2NC(=O)NC2=O)CC1 (stereo not drawn) [Example 90, 5-{2-[4-(2-tert-Butylphenyl)piperazin-1-yl]-2-oxoethyl}imidazolidine-2,4-dione] | 34 | – | – | – | – | –
CC(C)(C)c1ccccc1N1CCN(C(=O)C(O)CO)CC1 (stereo not drawn) [Example 110, 3-[4-(2-tert-Butylphenyl)piperazin-1-yl]-3-oxopropane-1,2-diol] | 330 | – | – | – | – | –
